Reference: patent publication US10077243B2, “Compounds for treating disorders mediated by metabotropic glutamate receptor 5, and methods of use thereof” (Sunovion Pharmaceuticals Inc., priority 2009, dated 2018)
pEC50: −log10 of the molar value.

What follows are compounds tested against T1, human mGluR5 (Homo sapiens, UniProt P41594) (assay: In vitro cell-based FLIPR calcium assay for positive modulation of the activation of mGluR5 by glutamate (PAM EC50)). Settings: HEK293/GLAST cells expressing recombinant human mGluR5; FLIPR calcium signal; glutamate added at its EC20; read-out: mGluR5 PAM EC50.
T1 construct: expressed in transfected cells; host or cells: HEK293 cells stably expressing rat GLAST (EAAT1), stably transfected with pcDNAzeo3.1 carrying synthetic human mGluR5 DNA; zeocin-selected single clones
T1 sequence (P41594 21-1212): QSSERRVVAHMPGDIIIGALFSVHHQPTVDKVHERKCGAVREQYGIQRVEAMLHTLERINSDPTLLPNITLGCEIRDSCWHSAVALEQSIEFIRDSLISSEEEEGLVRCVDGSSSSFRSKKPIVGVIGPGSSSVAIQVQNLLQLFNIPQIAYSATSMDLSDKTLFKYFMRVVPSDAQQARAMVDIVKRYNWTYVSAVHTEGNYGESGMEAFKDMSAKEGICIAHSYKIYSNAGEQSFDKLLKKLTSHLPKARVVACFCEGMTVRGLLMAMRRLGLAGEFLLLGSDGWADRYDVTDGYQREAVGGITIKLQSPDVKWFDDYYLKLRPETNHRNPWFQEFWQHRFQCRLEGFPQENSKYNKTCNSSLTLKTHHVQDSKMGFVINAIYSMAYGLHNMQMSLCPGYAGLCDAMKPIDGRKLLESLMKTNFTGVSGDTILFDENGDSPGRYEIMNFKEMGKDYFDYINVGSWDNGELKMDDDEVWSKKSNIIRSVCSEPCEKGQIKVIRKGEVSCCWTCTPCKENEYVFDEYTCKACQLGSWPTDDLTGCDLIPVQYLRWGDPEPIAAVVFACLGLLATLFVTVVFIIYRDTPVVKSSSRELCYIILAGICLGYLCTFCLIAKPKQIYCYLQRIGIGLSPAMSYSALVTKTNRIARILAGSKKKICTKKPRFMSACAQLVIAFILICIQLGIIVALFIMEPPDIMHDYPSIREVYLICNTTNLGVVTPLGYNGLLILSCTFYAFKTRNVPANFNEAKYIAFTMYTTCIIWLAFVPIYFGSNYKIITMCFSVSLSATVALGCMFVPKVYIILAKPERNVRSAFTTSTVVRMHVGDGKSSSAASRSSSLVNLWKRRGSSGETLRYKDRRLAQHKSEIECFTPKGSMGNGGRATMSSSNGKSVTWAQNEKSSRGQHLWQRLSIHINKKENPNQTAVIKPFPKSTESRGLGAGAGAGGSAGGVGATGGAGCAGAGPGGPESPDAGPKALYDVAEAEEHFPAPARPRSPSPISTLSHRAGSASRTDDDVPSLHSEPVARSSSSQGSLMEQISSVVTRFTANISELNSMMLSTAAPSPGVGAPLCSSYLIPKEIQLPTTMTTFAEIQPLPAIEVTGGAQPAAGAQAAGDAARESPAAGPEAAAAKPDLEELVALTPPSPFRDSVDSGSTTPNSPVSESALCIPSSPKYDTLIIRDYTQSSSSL
Outline: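 PAM activity was measured as FLIPR calcium fluorescence in the presence of an EC20 glutamate concentration determined daily from a glutamate concentration-response curve. Cells were HEK293/GLAST clones expressing mGluR5, dye-loaded at 25 °C for 45–60 min in HEPES-buffered HBSS; vehicle control was 0.3% DMSO.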

pEC50	Structure (SMILES)
7.52 to 8.00	O=c1c2ccc(C#Cc3ccc(F)cc3)cc2ncn1CC1CCCO1 (single isomer, unassigned) [1.15/1.16 faster moving enantiomer (fraction 1), 7-((4-fluorophenyl)ethynyl)-3-((tetrahydrofuran-2-yl)methyl)quinazolin-4(3H)-one]
7.52 to 8.00	CC1CCCc2nc3cc(C#Cc4ccccn4)ccc3c(=O)n21 (centres unmarked) [Example 4.18, 9-methyl-3-(pyridin-2-ylethynyl)-8,9-dihydro-6H-pyrido[2,1-b]quinazolin-11(7H)-one]
> 8.00	CC1(C)CCc2nc3cc(C#Cc4cccc(F)c4)ccc3c(=O)n2C1 [Example 4.14, 3-((3-fluorophenyl)ethynyl)-8,8-dimethyl-8,9-dihydro-6H-pyrido[2,1-b]quinazolin-11(7H)-one]
7.00 to 7.52	COCCn1cnc2cc(C#Cc3cccc(F)c3)cnc2c1=O [Example 11.1, 7-((3-fluorophenyl)ethynyl)-3-(2-methoxyethyl)pyrido[3,2-d]pyrimidin-4(3H)-one]
6.52 to 7.00	O=c1c2ccc(C#Cc3ccc(F)cc3)cc2ncn1CC1CC1 [Example 1.9, 3-(cyclopropylmethyl)-7-((4-fluorophenyl)ethynyl)quinazolin-4(3H)-one]
6.00 to 6.52	CC1Cc2nc3cc(C#Cc4ccccn4)ccc3c(=O)n2CCN1C (centres unmarked) [Example 8.28, 3,4-dimethyl-8-(pyridin-2-ylethynyl)-2,3,4,5-tetrahydro-[1,4]diazepino[7,1-b]quinazolin-11(1H)-one]
7.00 to 7.52	O=c1c2ccc(C#Cc3ccnc(F)c3)cc2nc2n1CCC1(CC2)OCCO1 [Example 7.17]
6.52 to 7.00	COCCc1nc2cc(C#Cc3cccc(F)c3)ccc2c(=O)[nH]1 [Example 2.13, 7-((3-fluorophenyl)ethynyl)-2-(2-methoxyethyl)quinazolin-4(3H)-one]
7.00 to 7.52	O=c1c2ccc(C#Cc3ccccc3F)cc2nc2n1CCC1(CC2)OCCO1 [Example 7.2]
> 8.00	CC1CCCc2nc3cc(C#Cc4ccccn4)ccc3c(=O)n2C1 (centres unmarked) [Example 6.42, 9-methyl-3-(pyridin-2-ylethynyl)-7,8,9,10-tetrahydroazepino[2,1-b]quinazolin-12(6H)-one]
7.52 to 8.00	CCCn1cnc2cc(C#Cc3cccc(F)c3)ccc2c1=O [Example 1.7, 7-((3-fluorophenyl)ethynyl)-3-propylquinazolin-4(3H)-one]
6.00 to 6.52	O=c1c2ccc(C#CC3=CCCCC3)cc2nc2n1CCC1(CC2)OCCO1 [Example 7.53]
7.52 to 8.00	CC1(C)CCCc2nc3cc(C#Cc4ccccn4)ccc3c(=O)n2C1 [Example 6.43, 9,9-dimethyl-3-(pyridin-2-ylethynyl)-7,8,9,10-tetrahydroazepino[2,1-b]quinazolin-12(6H)-one]
6.52 to 7.00	O=c1c2ccc(C#Cc3ccc(F)cc3)cc2ncn1CC1CCCO1 (single isomer, unassigned) [1.15/1.16 slower moving enantiomer (fraction 2), 7-((4-fluorophenyl)ethynyl)-3-((tetrahydrofuran-2-yl)methyl)quinazolin-4(3H)-one]
7.00 to 7.52	COCc1cnc2cc(C#Cc3cccc(F)c3)ccn2c1=O [Example 13.7, 8-((3-fluorophenyl)ethynyl)-3-(methoxymethyl)-4H-pyrido[1,2-a]pyrimidin-4-one]
7.00 to 7.52	O=c1c2ccc(C#Cc3ccc(F)cc3)cc2ncn1CC1CCCO1 (centres unmarked) [Example 1.13, 7-((4-fluorophenyl)ethynyl)-3-((tetrahydrofuran-2-yl)methyl)quinazolin-4(3H)-one]
6.52 to 7.00	Cn1cc(C#Cc2ccc3c(=O)n4c(nc3c2)CCC2(CC4)OCCO2)cn1 [Example 7.69]
7.00 to 7.52	CC1CCc2nc3cc(C#Cc4cccc(C#N)n4)ccc3c(=O)n2CC1 (centres unmarked) [Example 6.47, 6-((8-methyl-12-oxo-6,7,8,9,10,12-hexahydroazepino[2,1-b]quinazolin-3-yl)ethynyl)picolinonitrile]
7.00 to 7.52	O=c1c2ccc(C#Cc3ccoc3)cc2nc2n1CCC1(CC2)OCCO1 [Example 7.56]
> 8.00	COC1CCc2nc3cc(C#Cc4cccc(F)c4)ccc3c(=O)n2CC1 (centres unmarked) [Example 6.18, 3-((3-fluorophenyl)ethynyl)-8-methoxy-7,8,9,10-tetrahydroazepino[2,1-b]quinazolin-12(6H)-one]
7.52 to 8.00	O=c1c2ccc(C#Cc3cccc(F)c3)cc2nc2n1CCC1(CC2)OCCO1 [Example 6.34, 3-((3-fluorophenyl)ethynyl)-9,10-dihydro-6H-spiro[azepino[2,1-b]quinazoline-8,2′-[1,3]dioxolan]-12(7H)-one]
7.52 to 8.00	O=c1c2ccc(C#Cc3ccccn3)cc2nc2n1CC(F)(F)CC2 [Example 4.42, 8,8-difluoro-3-(pyridin-2-ylethynyl)-8,9-dihydro-6H-pyrido[2,1-b]quinazolin-11(7H)-one]

pEC50	Structure (SMILES)
6.00 to 6.52	Cn1c(C2CCCO2)nc2cc(C#Cc3cccc(F)c3)ccc2c1=O (centres unmarked) [Example 2.3, 7-((3-fluorophenyl)ethynyl)-3-methyl-2-(tetrahydrofuran-2-yl)quinazolin-4(3H)-one]
7.00 to 7.52	COCC1Cc2nc3cc(C#Cc4ccccn4)ccc3c(=O)n2C1 (centres unmarked) [Example 3.19, 2-(methoxymethyl)-6-(pyridin-2-ylethynyl)-2,3-dihydropyrrolo[2,1-b]quinazolin-9(1H)-one]
6.00 to 6.52	Cn1cnc2cc(C#Cc3nccs3)ccc2c1=O [Example 1.5, 3-methyl-7-(thiazol-2-ylethynyl)quinazolin-4(3H)-one]
6.00 to 6.52	O=c1[nH]cnc2cc(C#Cc3cccc(F)c3)ccc12 [Example 1.2, 7-((3-fluorophenyl)ethynyl)quinazolin-4(3H)-one]
6.00 to 6.52	O=C(Nc1ccc(F)cc1)c1ccn2c(=O)c3c(nc2c1)CCCCCC3 [Example 28.2, N-(4-fluorophenyl)-12-oxo-7,8,9,10,11,12-hexahydro-6H-cycloocta[d]pyrido[1,2-a]pyrimidine-3-carboxamide]
7.00 to 7.52	COCC1CCc2nc3cc(C#Cc4ccccn4)ccc3c(=O)n2C1 (single isomer, unassigned) [4.34a/4.34b slower moving enantiomer (fraction 2), 8-(methoxymethyl)-3-(pyridin-2-ylethynyl)-8,9-dihydro-6H-pyrido[2,1-b]quinazolin-11(7H)-one]
7.52 to 8.00	O=c1c2ccc(C#Cc3ccsc3)cc2nc2n1CCC1(CC2)OCCO1 [Example 7.59]
6.52 to 7.00	N#CC1CCc2nc3cc(C#Cc4ccccn4)ccc3c(=O)n2CC1 (centres unmarked) [Example 6.39, 12-oxo-3-(pyridin-2-ylethynyl)-6,7,8,9,10,12-hexahydroazepino[2,1-b]quinazoline-8-carbonitrile]
7.52 to 8.00	CC1CCc2nc3cc(C#Cc4ccccn4)cnc3c(=O)n2CC1 (centres unmarked) [Example 11.9, 8-methyl-3-(pyridin-2-ylethynyl)-7,8,9,10-tetrahydropyrido[3′,2′:4,5]pyrimido[1,2-a]azepin-12(6H)-one]
6.00 to 6.52	CCCn1ccc2cc(C#Cc3ccc(F)cc3)ccc2c1=O [Example 18.2, 6-((4-fluorophenyl)ethynyl)-2-propylisoquinolin-1 (2H)-one]
> 8.00	O=c1c2ccc(C#Cc3cccc(F)c3)cc2nc2n1CCCC2 [Example 4.4]
7.00 to 7.52	COC1(C)CCc2nc3cc(C#Cc4ccccn4)ccc3c(=O)n2CC1 (centres unmarked) [Example 6.50, 8-methoxy-8-methyl-3-(pyridin-2-ylethynyl)-7,8,9,10-tetrahydroazepino[2,1-b]quinazolin-12(6H)-one]
7.52 to 8.00	CC1CCCn2c(nc3cc(C#Cc4ccccn4)ccc3c2=O)C1 (centres unmarked) [Example 6.36, 7-methyl-3-(pyridin-2-ylethynyl)-7,8,9,10-tetrahydroazepino[2,1-b]quinazolin-12(6H)-one]
6.00 to 6.52	CC(C#N)N1CCc2nc3cc(C#Cc4ccccn4)ccc3c(=O)n2CC1 (centres unmarked) [Example 8.24, 2-(11-oxo-8-(pyridin-2-ylethynyl)-1,2,4,5-tetrahydro-[1,4]diazepino[7,1-b]quinazolin-3(11H)-yl)propanenitrile]
6.00 to 6.52	CCC(C)c1nc2cc(C#Cc3cccc(F)c3)ccc2c(=O)n1C (centres unmarked) [Example 2.14, 2-(sec-butyl)-7-((3-fluorophenyl)ethynyl)-3-methylquinazolin-4(3H)-one]
6.52 to 7.00	Cc1cccc(C#Cc2ccc3c(=O)n4c(nc3c2)CCC2(CC4)OCCO2)n1 [Example 7.46]
7.52 to 8.00	O=c1c2ccc(C#Cc3ccccn3)cc2nc2n1CCCCN2 [Example 8.25, 10-(pyridin-2-ylethynyl)-2,3,4,5-tetrahydro-[1,3]diazepino[2,1-b]quinazolin-7(1H)-one]
6.52 to 7.00	CCCCN1CCn2c(nc3cc(C#Cc4cccc(F)c4)ccc3c2=O)C1 [Example 5.11, 2-butyl-9-((3-fluorophenyl)ethynyl)-3,4-dihydro-1H-pyrazino[2,1-b]quinazolin-6(2H)-one]
6.52 to 7.00	CCc1ccc(C#Cc2ccc3c(=O)n4c(nc3c2)CCCCC4)cc1 [Example 6.3, 3-((4-ethylphenyl)ethynyl)-7,8,9,10-tetrahydroazepino[2,1-b]quinazolin-12(6H)-one]
7.52 to 8.00	C=CCN1CCc2nc3cc(C#Cc4cccc(F)c4)ccc3c(=O)n2CC1 [Example 8.12, 3-allyl-8-((3-fluorophenyl)ethynyl)-2,3,4,5-tetrahydro-[1,4]diazepino[7,1-b]quinazolin-11(1H)-one]
7.52 to 8.00	CC1(C)Cn2c(nc3cc(C#Cc4ccccn4)ccc3c2=O)CO1 [Example 4.40, 3,3-dimethyl-9-(pyridin-2-ylethynyl)-3,4-dihydro-[1,4]oxazino[3,4-b]quinazolin-6(1H)-one]

Structure (SMILES)	pEC50
CC1CCc2nc3cc(C#Cc4ccccn4)ccn3c(=O)c2CC1 (centres unmarked) [Example 16.6, 8-methyl-3-(pyridin-2-ylethynyl)-7,8,9,10-tetrahydrocyclohepta[d]pyrido[1,2-a]pyrimidin-11(6H)-one]	> 8.00
